Source: paper PMC5493200 (ACS infectious diseases, 2016)
Where “and” joins values, the source holds several entries; their conditions need not be identical. Equal entries are not always repeated.

How the values were obtained:
M. tuberculosis H37Rv = experiment: microbe, parasite or virus in culture; format: cell-based, Mycobacterium tuberculosis; conditions: Tables 1-4 and text; […]
[1] = system: M. tuberculosis H37Rv Rv1258c knockout (KO); experiment: microbe, parasite or virus in culture; format: cell-based; conditions: Tables 1-4 and text; 7 days, 7H9 broth
[2] = molecular target: Purified 70S M. smegmatis bacterial ribosomes (Mycolicibacterium smegmatis, UniProt A0QSG6); experiment: Ribosomal translation inhibition; format: biochemical; conditions: for Ribosome IC50: inhibits luciferase activity by 50%
Rv1258c efflux pump = conditions: for Efflux Ratio: H37Rv MIC / Rv1258c KO MIC

Sequence of Purified 70S M. smegmatis bacterial ribosomes (A0QSG6 whole entry): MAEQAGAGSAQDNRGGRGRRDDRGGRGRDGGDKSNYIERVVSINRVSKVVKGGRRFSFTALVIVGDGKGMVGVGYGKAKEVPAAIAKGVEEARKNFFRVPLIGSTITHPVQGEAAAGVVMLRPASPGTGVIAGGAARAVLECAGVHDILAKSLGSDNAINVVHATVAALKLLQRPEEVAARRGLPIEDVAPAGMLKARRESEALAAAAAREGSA

| SMILES | H37Rv MIC (M. tuberculosis H37Rv) | Rv1258c KO MIC [1] | Ribosome IC50 [2] | Fold change of MIC between H37Rv and Rv1258c KO (efflux) (Rv1258c efflux pump) | Efflux Ratio (Rv1258c efflux pump) | IC50 ([2]; as printed in modeling section) | Fold weaker binding than 1 ([2]; relative to 1) |
| --- | --- | --- | --- | --- | --- | --- | --- |
| Br.Br.Br.CNC1C(O)C(NC)C2OC3(O)C(NC(=O)Cc4cc(C(C)C)ccn4)CC(C)OC3OC2C1O [Compound 33, 3′-Dihydro-3′-deoxy-3′(R)-(4-isopropylpyridin-2-yl)acetylamino spectinomycin trihydrobromide] | 6.3 µg/mL | 1.6 µg/mL | 0.36 µg/mL | 4 fold | 4 | – | – |
| Br.Br.Br.CNC1C(O)C(NC)C2OC3(O)C(OC(C)C[C@H]3NC(=O)Cc3nccc(Cl)c3C(C)C)OC2C1O (stereo partly drawn) [Compound 45, 3′-Dihydro-3′-deoxy-3′(R)-(4-chloro-3-isopropylpyridin-2-yl)acetylamino spectinomycin trihydrobromide] | 50 µg/mL | 1.6 µg/mL | 2.3 µg/mL and 2.31 µg/mL | 32 fold | 32 | – | – |
| Br.Br.Br.CNC1C(O)C(NC)C2OC3(O)C(NC(=O)Cc4nccs4)CC(C)OC3OC2C1O [Compound 19, 3′-Dihydro-3′-deoxy-3′(R)-(thiazol-2-yl) acetylamino spectinomycin trihydrobromide] | – | 6.3 µg/mL | 0.72 µg/mL | – | 1 | – | – |
| CNC1C(O)C(NC)C2OC3(O)C(OC(C)C[C@H]3NC(=O)Cc3cccnc3)OC2C1O.Cl.Cl.Cl (stereo partly drawn) [Compound 3, 3′-Dihydro-3′-deoxy-3′(R)-(pyridin-3yl)acetylamino spectinomycin trihydrochloride] | 200 µg/mL | 6.3 µg/mL | – | – | – | – | – |
| CNC1C(O)C(NC)C2OC3(O)C(OC(C)C[C@H]3NC(=O)Cc3ccc(OC(F)F)cn3)OC2C1O.Cl.Cl.Cl (stereo partly drawn) [Compound 40, 3′-Dihydro-3′-deoxy-3′(R)-(5-(difluoromethoxy)pyridin-2-yl)acetylamino spectinomycin trihydrochloride] | – | – | – | – | 2 | – | – |
| Br.Br.Br.CNC1C(O)C(NC)C2OC3(O)C(NC(=O)Cc4cccnn4)CC(C)OC3OC2C1O [Compound 14, 3′-Dihydro-3′-deoxy-3′(R)-(pyridazin-3-yl) acetylamino spectinomycin trihydrobromide] | – | 12.5 µg/mL | – | – | 2 | – | – |
| CNC1C(O)C(NC)C2OC3(O)C(OC(C)C[C@H]3NC(=O)Cc3cc(OC)c(F)cn3)OC2C1O.Cl.Cl.Cl (stereo partly drawn) [Compound 50, 3′-Dihydro-3′-deoxy-3′(R)-(5-fluoro-4-methoxypyridin-2-yl)acetylamino spectinomycin trihydrochloride] | 6.3 µg/mL | 3.1 µg/mL | 0.92 µg/mL | – | 2 | – | – |
| Br.Br.Br.CNC1C(O)C(NC)C2OC3(O)C(OC(C)C[C@H]3NC(=O)Nc3ccccc3)OC2C1O (stereo partly drawn) [Compound 8, 3′-Dihydro-3′-deoxy-3′(R)-phenylaminocarbonylamino spectinomycin trihydrobromide] | – | 25 µg/mL | 3.77 µg/mL | – | >8 | – | – |
| CNC1C(O)C(NC)C2OC3(O)C(OC(C)C[C@H]3NCCc3ccccc3)OC2C1O.Cl.Cl.Cl (stereo partly drawn) [Compound 6, 3′-Dihydro-3′-deoxy-4(R)-2-phenylethylamino spectinomycin trihydrochloride] | 200 µg/mL | – | – | – | – | – | – |
| CNC1C(O)C(NC)C2OC3(O)C(OC(C)C[C@H]3NC(=O)Cc3ccncc3)OC2C1O.Cl.Cl.Cl (stereo partly drawn) [Compound 4, 3′-Dihydro-3′-deoxy-3′(R)-(pyridin-4yl)acetylamino spectinomycin trihydrochloride] | 200 µg/mL | 12.5 µg/mL | – | – | – | – | – |
| CN[C@@H]1[C@H](O)[C@H](NC)[C@H]2O[C@]3(O)[C@H](O[C@@H]2[C@H]1O)O[C@H](C)C[C@H]3NC(=O)Cc1ncccn1.Cl.Cl [Compound 13, 3′-Dihydro-3′-deoxy-3′(R)-(pyrimidin-2yl)acetylamino spectinomycin dihydrochloride] | – | >200 µg/mL | 45.50 µg/mL | – | – | 45.5 µM | 39 fold |
| CNC1C(O)C(NC)C2OC3(O)C(OC(C)C[C@H]3NC(=O)Oc3ccccc3)OC2C1O.Cl.Cl (stereo partly drawn) [Compound 7, 3′-Dihydro-3′-deoxy-3′(R)-phenyloxycarbonylamino spectinomycin dihydrochloride] | >200 µg/mL | >200 µg/mL | 16.62 µg/mL | – | – | – | – |
| Br.Br.Br.CNC1C(O)C(NC)C2OC3(O)C(OC(C)C[C@H]3NC(=O)Cc3ccncn3)OC2C1O (stereo partly drawn) [Compound 16, 3′-Dihydro-3′-deoxy-3′(R)-(pyrimidin-4-yl)acetylamino spectinomycin trihydrobromide] | – | 25 µg/mL | – | – | 0.5 | – | – |
| Br.Br.Br.CNC1C(O)C(NC)C2OC3(O)C(NC(=O)Cc4ccccn4)CC(C)OC3OC2C1O [Compound 5, 3′-Dihydro-3′-deoxy-3′(S)-(pyridin-2-yl)acetylamino spectinomycin Trihydrobromide] | – | >200 µg/mL | 42.23 µg/mL | – | – | – | – |
| Br.Br.Br.CNC1C(O)C(NC)C2OC3(O)C(NC(=O)Cc4csc(N)n4)CC(C)OC3OC2C1O [Compound 18, 3′-Dihydro-3′-deoxy-3′(R)-(2-aminothiazol-4-yl)acetylamino spectinomycin trihydrobromide] | – | 6.3 µg/mL | 0.62 µg/mL | – | 1 | – | – |
| CNC1C(O)C(NC)C2OC3(O)C(NC(=O)c4ccccn4)CC(C)OC3OC2C1O.Cl.Cl.Cl [Compound 11, 3′-Dihydro-3′-deoxy-3′(R)-pyridin-2-carboxylicamino spectinomycin trihydrochloride] | – | >200 µg/mL | – | – | – | – | – |
| Br.Br.Br.CNC1C(O)C(NC)C2OC3(O)C(OC(C)C[C@H]3NC(=O)Cc3cnccn3)OC2C1O (stereo partly drawn) [Compound 15, 3′-Dihydro-3′-deoxy-3′(R)-(pyrazin-2-yl)acetylamino spectinomycin trihydrobromide] | – | 25 µg/mL | – | – | 1 | – | – |
| Br.Br.Br.CNC1C(O)C(NC)C2OC3(O)C(NC(=O)Cc4ccc(C)cn4)CC(C)OC3OC2C1O [Compound 31, 3′-Dihydro-3′-deoxy-3′(R)-(5-methylpyridin-2-yl)acetylamino spectinomycin trihydrobromide] | 3.1 µg/mL | 3.1 µg/mL | 0.54 µg/mL | – | – | – | – |
| Br.Br.Br.CNC1C(O)C(NC)C2OC3(O)C(NC(=O)Cc4ccc(N)cn4)CC(C)OC3OC2C1O [Compound 37, 3′-Dihydro-3′-deoxy-3′(R)-(5-aminopyridin-2-yl)acetylamino spectinomycin trihydrobromide] | 6.3 µg/mL | 6.3 µg/mL | 0.30 µg/mL | – | – | – | – |
